For data set [1], the system named is BaF3 cells stably expressing FGFR (human). As to the kind of experiment: Cell proliferation-promoting effect on BaF3 cells stably expressing human FGFR. It counts as cell-based. The conditions noted are these: BaF3 with human FGFR; viable cells at the addition concentration (0.001 to 10 nmol/L) with largest number; 2 nights. As to the method: (§1) The FGFR phosphorylation ability of the cyclic peptide complex was evaluated using the BaF3 cell proliferation-promoting effect in which FGFR was stably expressed.
(§2) BaF3 cells stably expressing FGFR were established by introducing a vector (human: Gene Copocia, EX-Y2820-M67, bovine: sequence of Accession No. A4IFL5 was introduced into pCDNA3.1/Hygro(+) Mammalian Expression Vector (Thermo, V87020), porcine: sequence of Accession No. A0A8DIE4H1 was introduced into pCDNA3.1/Hygro(+) Mammalian Expression Vector (Thermo, V87020), and avian: sequence of Accession No. P21804 was introduced into pCDNA3.1/Hygro(+) Mammalian Expression Vector (Thermo, V87020)) into which FGFR gene had been incorporated, into BaF3 cells using NucleoFector (Lonza) and performing drug selection of cells into which the FGFR gene had been introduced using hygromycin.
(§3) The evaluation of the proliferation-promoting effect of BaF3 cells in which FGFR is stably expressed was performed by the following method. First, RPMI-1640 with L-Glutamine and Phenol Red (FUJIFILM Wako Pure Chemical Corporation, 189-02025) and Fetal Bovine Serum (Thermo, 10270-106) were mixed at a volume ratio of 9:1, and then heparin (STEM CELL, 07980) was added thereto such that the final concentration thereof was 8 μg/mL, thereby preparing a culture medium for evaluation (hereinafter, described as RPMI (10% FBS) medium). Next, the BaF3 cells in which FGFR had been stably expressed were washed twice with RPMI (10% FBS) culture medium, suspended in RPMI (10% FBS) culture medium in which the cyclic peptide complex had been dissolved to a final concentration of 0.001 to 10 nmol/L, and seeded in a 384-well plate. In this case, a condition in which the cyclic peptide complex was not added as a negative control was prepared. After culturing at 37° C. (5% CO2) for 2 nights, Hoechst 33342, Trihydrochloride, Trihydrate—10 mg/mL Solution in Water (Thermo, H3570), -Cellstain (registered trademark)-Calcein-AM solution (1 mg/mL DMSO solution) (DOJINDO, C396), and -Cellstain (registered trademark)-PI solution (DOJINDO, P378) were each added to RPMI (10% FBS) culture medium in a volume amount of 1/1,000 at the final concentration, and live/dead staining of the cells were performed by allowing to stand at room temperature for 1 hour, and imaging was performed using a confocal microscope (Yokogawa Electric Corporation, CQ1). The number of viable cells was calculated from the imaging data, and the cell proliferation-promoting effect was evaluated according to the following evaluation criteria. The number of viable cells in the negative control was about 20 cells/well. The evaluation result preferably satisfies the evaluation criteria A, B, or C. […]

Data set [2] deals with BaF3 cells stably expressing FGFR (bovine). The experiment in a line: Cell proliferation-promoting effect on BaF3 cells stably expressing bovine FGFR. It counts as cell-based. The conditions noted are these: BaF3 with bovine FGFR; viable cells at the addition concentration (0.001 to 10 nmol/L) with largest number; 2 nights. As to the method: as §1, §2, §3
Data set [3] relates to BaF3 cells stably expressing FGFR (porcine). As to the kind of experiment: Cell proliferation-promoting effect on BaF3 cells stably expressing porcine FGFR. The conditions noted are these: BaF3 with porcine FGFR; viable cells at the addition concentration (0.001 to 10 nmol/L) with largest number; 2 nights. It counts as cell-based. As to the method:
as §1, §2, §3

The subject of data set [4] is BaF3 cells stably expressing FGFR (avian). The experiment in a line: Cell proliferation-promoting effect on BaF3 cells stably expressing avian FGFR. The conditions noted are these: BaF3 with avian FGFR; viable cells at the addition concentration (0.001 to 10 nmol/L) with largest number; 2 nights. It counts as cell-based. As to the method:
as §1, §2, §3

Data set [5] in a line: Stability of cyclic peptide after alkali treatment, LC. The class given is physicochemical. The conditions noted are these: alkali treatment: 0.5 mol/L sodium hydroxide aqueous solution, room temperature, 3 hours. As to the method: In addition, the stability of the cyclic peptide (SEQ ID NO: 382) containing a cysteine residue in the cyclized portion and the cyclic peptide (SEQ ID NO: 374) containing a homocysteine residue in the cyclized portion was compared under the following alkali treatment, which is a more severe condition.
The alkali treatment was performed by the following method. 25 μL of a 0.2 mg/mL cyclic peptide aqueous solution was prepared, 58.8 μL of a 0.5 mol/L sodium hydroxide aqueous solution was added to the aqueous solution, and the mixture was incubated at room temperature for 3 hours to obtain an aqueous solution of the cyclic peptide alkali-treated. The total area of all the peaks in LC/MS of the cyclic peptide before the alkali treatment was set to 100%, and the proportion of the total area of all the peaks in LC/MS of the aqueous solution of the cyclic peptide alkali-treated was determined to calculate the residual rate of the cyclic peptide.
The LC conditions used for the evaluation of molecular stability are the same as those in the measurement of the above-described cyclic peptide treated with a reducing agent.

Ends that are not written are not given here.

“395 (CSYERLQFHGHEAPFRVKVCSYERLQFHGHEAPFRVKV; also: cyclic, closure not given here) [compound 395]”: the “Evaluation result of cell proliferative properties Human” value in data set [1] was “B (The number of viable cells is 200 cells/well or more and less than 400 cells/well.)”. Also, in data set [2], the “Evaluation result of cell proliferative properties Bovine” value was “A (The number of viable cells is 400 cells/well or more.)”. Besides, the “Evaluation result of cell proliferative properties Porcine” value in data set [3] is “B (The number of viable cells is 200 cells/well or more and less than 400 cells/well.)”. In data set [4], the “Evaluation result of cell proliferative properties Avian” value is “B (The number of viable cells is 200 cells/well or more and less than 400 cells/well.)”.

Regarding “H-(C)-SYERLQFHGHEAPFRV-(K(acetyl))-VKKK [SEQ ID NO: 382]”, the “residual rate of the cyclic peptide” value in data set [5] was found to be 26%.

As to “H-(Hcy)-SYERLQFHGHEAPFRV-(K(acetyl))-VKKK [SEQ ID NO: 374]”, the “residual rate of the cyclic peptide” value in data set [5] stood at 32%.

Turning to “392 (HCSYERLQFHGHEAPFRVKVHCSYERLQFHGHEAPFRVKV; also: cyclic, closure not given here) [compound 392]”, the “Evaluation result of cell proliferative properties Human” value in data set [1] is listed as “A (The number of viable cells is 400 cells/well or more.)”. The “Evaluation result of cell proliferative properties Bovine” value in data set [2] was “A (The number of viable cells is 400 cells/well or more.)”. In addition, the “Evaluation result of cell proliferative properties Porcine” value in data set [3] is “B (The number of viable cells is 200 cells/well or more and less than 400 cells/well.)”. In addition, the “Evaluation result of cell proliferative properties Avian” value in data set [4] was “B (The number of viable cells is 200 cells/well or more and less than 400 cells/well.)”.

For the substance “396 (CSYERLQFHGHEAPFRVKVCSYERLQFHGHEAPFRVKV; also: cyclic peptide) [compound 396]”, the “Evaluation result of cell proliferative properties Human” value in data set [1] was “A (The number of viable cells is 400 cells/well or more.)”. The “Evaluation result of cell proliferative properties Bovine” value in data set [2] is on record as “A (The number of viable cells is 400 cells/well or more.)”. In data set [3], the “Evaluation result of cell proliferative properties Porcine” value was “B (The number of viable cells is 200 cells/well or more and less than 400 cells/well.)”. The “Evaluation result of cell proliferative properties Avian” value in data set [4] was “A (The number of viable cells is 400 cells/well or more.)”.

For “391 (HCSYERLQFHGHEAPFRVKVGHCSYERLQFHGHEAPFRVKV; also: cyclic, closure not given here) [compound 391]”, the “Evaluation result of cell proliferative properties Human” value in data set [1] is listed as “A (The number of viable cells is 400 cells/well or more.)”. In data set [2], the “Evaluation result of cell proliferative properties Bovine” value was “A (The number of viable cells is 400 cells/well or more.)”. In data set [3], the “Evaluation result of cell proliferative properties Porcine” value was “B (The number of viable cells is 200 cells/well or more and less than 400 cells/well.)”. For the same substance, in data set [4], the “Evaluation result of cell proliferative properties Avian” value was “A (The number of viable cells is 400 cells/well or more.)”.

Source of the values: US20260008818A1, “CYCLIC PEPTIDE OR SALT THEREOF, AND USES THEREOF” (FUJIFILM Corporation, priority 2023, published 2026).
